In assay [1] the target is T1, HePTP (Homo sapiens, UniProt P35236).
T1 sequence (P35236 1-360): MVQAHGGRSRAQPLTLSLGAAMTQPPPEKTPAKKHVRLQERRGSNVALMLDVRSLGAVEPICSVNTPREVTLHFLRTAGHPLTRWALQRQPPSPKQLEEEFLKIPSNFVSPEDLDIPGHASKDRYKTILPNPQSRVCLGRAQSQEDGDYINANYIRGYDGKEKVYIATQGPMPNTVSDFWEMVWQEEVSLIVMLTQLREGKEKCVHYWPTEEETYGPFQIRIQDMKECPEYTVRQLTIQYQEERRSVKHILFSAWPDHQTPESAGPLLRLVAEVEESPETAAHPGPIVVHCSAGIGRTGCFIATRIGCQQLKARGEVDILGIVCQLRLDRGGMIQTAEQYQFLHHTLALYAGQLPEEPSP
Kind of assay: HePTP dose-response confirmation screening. In kind it is biochemical. From the text: (§1) The following assay can be conducted manually or can be carried out by a robotic station.
(§2) Compounds are then serially diluted in 100% DMSO, and then diluted with water to 10% final DMSO concentration.
(§3) The primary screening actives can then proceed to the dose-response confirmation stage.
* n represents the Hill coefficient. This coefficient is derived from the Hill equation which has the formula: […]
wherein θ is the fraction of ligand binding sites filled, L is the inhibitor concentration, Ka is the inhibitor concentration producing half occupation of the ligand binding sites, and n is the Hill coefficient.

Assay [2] has as its target T1, HePTP. In words: HePTP HTS primary screen (colorimetric pNPP / Biomol Green). The assay is classed as biochemical. The settings on record: 20 μM compound; read-out: % Inhib. at 20 μM.
Description: as §1
For this assay, HePTP catalyzes the following reaction:
wherein p-nitrophenyl phosphate serves as a substrate and is cleaved to form p-nitrophenol and phosphate. The liberated phosphate complexes with the Biomol Green™ reagent to provide a quantitative colorimetric value for the amount of substrate cleaved.
as §2, §3

`CC(C)CN(C(=O)COC(=O)c1cc2c(s1)CCC2)C1CCS(=O)(=O)C1` (stereo not drawn) [[(1,1-Dioxothiolan-3-yl)-(2-methylpropyl)carbamoyl]methyl 4-thiabicyclo[3.3.0]octa-2,9-diene-3-carboxylate]: on HePTP [1] (10 concentrations, 2-fold serial dilution, pNPP substrate), 1.21 µM corresponded to half-maximal inhibition (IC50). The “n / nH (Hill coefficient)” value at HePTP [1] (Hill coefficient of the dose-response curve) was found to be 1.52. The inhibition at 20 µM at HePTP [2] stood at 58.7%.

The values above are taken from patent US20120095032A1, “METHODS FOR TREATING LEUKEMIA AND MYELODYSPLASTIC SYNDROME, AND METHODS FOR IDENTIFYING AGENTS FOR TREATING SAME” (Sanford-Burnham Medical Research Institute, priority 2007, published 2012).
